Here are results for 2 compounds from patent publication US20260226493A1, “HERBICIDE RESISTANT PLANTS” (SYNGENTA CROP PROTECTION AG, priority 2023, published 2026).

Molecules are shown by their SMILES. Values joined by “and” are separate entries in the source; they are usually repeats but may differ in a detail not shown here. Equal values may be shown once.

In one assay the test system is Wildtype Samsun tobacco. Briefly: Visual herbicide damage score on wild-type tobacco plants after spraying. The following applies: for percentage of damage: 600 gai/ha, one WT plant. It is filed as in vivo. An excerpt:
(§1) Populations of transgenic tobacco comprising 20-30 transgenic events per plant transformation constructs were generated as described in Example 1. These lines were clonally propagated and 1 clone per event was sprayed with 600 g ai/ha compound L or A+0.2% Genapol X080 with a spray volume of 200 L/Ha (“g ai/ha” refers to grams of active compound per hectare).
A score of 0 indicates no visible damage or stunting whereas a score of 100 indicates a complete death of the plant. 20 transgenic events (i.e. individual transgenic plants) from each GM tobacco line were transplanted to soil 1 week prior to spraying with BIO3-BIO1inhibiting compounds. WT tobacco was included as a control. […]

In assay [1] the test system is D4597 (Arabidopsis thaliana BIO3-BIO1 G700S) containing tobacco plants. Kind of assay: Visual herbicide damage score on transgenic tobacco D4597 (pCMP AtBioDA G700S). It is filed as in vivo. The conditions noted are these: 600 gai/ha; 7 DAT; each table row is one D4597 transgenic plant.
Text: as §1
(§2) Herbicidal damage was visually assessed across the population and a herbicide damage score given at 7, 14 and 21 days. A score of 0 indicates no visible damage or stunting whereas a score of 100 indicates a complete death of the plant. 20 transgenic events (i.e. individual transgenic plants) from each GM tobacco line were transplanted to soil 1 week prior to spraying with BIO3-BIO1inhibiting compounds. WT tobacco was included as a control.
(§3) To determine if overexpression of variants detailed in Example 7 confer resistance to BIO3-BIO1 inhibiting compounds when expressed in plants, GM tobacco lines were produced using the methods in Example 1 and tested with BIO3-BIO1 inhibiting compounds.
(§4) Transgenic tobacco plants expressing the Arabidopsis thaliana BIO3-BIO1 variants C388D (SEQ ID NO:26), P421L(SEQ ID NO:41), F348C (SEQ ID NO:28), G700S (SEQ ID NO:39), W392S (SEQ ID NO:70) and the Zea mays BIO3-BIO1 variant C372D (SEQ ID NO:324). Populations of transgenic tobacco were sprayed and assessed as in Example 2

For assay [2], the system named is D4604 (Arabidopsis thaliana BIO3-BIO1 W392S) containing tobacco plants. Kind of assay: Visual herbicide damage score on transgenic tobacco D4604 (pCMP AtBioDA W392S). Type of assay: in vivo. The following applies: 600 gai/ha, each table row is one D4604 transgenic plant.
Text: as §1, §2, §3, §4

The target of assay [3] is T1, Arabidopsis thaliana BioDA variant enzymes (Arabidopsis thaliana, UniProt B0F481, C388T).
T1 construct: with the predicted N-terminal mitochondrial transit peptide removed; 6xHis-tag (N); thrombin cleavage site (N); made in house; host or cells: E. coli BL21 (DE3) bioA
Briefly: biochemical. Here is the method: (§5) These plasmids were then expressed in E. coli BL21 (DE3) bioA with 50 μg/mL kanamycin and 25 μg/mL chloramphenicol selection. Overnight cultures grown at 37° C. were used to inoculate 8×500 mL AIM in shake flasks at a ratio of 1:100. Cultures were grown at 37° C., 200 rpm for 3.5 hours and then overnight at 20° C. Cells were harvested by centrifugation for 30 minutes at 10 000 g. Cells were stored at −80° C. until extraction. 30 g of cell pellet from was thawed in 120 mL of IMAC buffer A (20 mM HEPES pH7.5, 25 mM imidazole, 500 mM sodium chloride, 0.15 mM pyridoxal phosphate, 0.5 mM TCEP, 1× complete Protease Inhibitor Tablet (Roche)). The resuspension was passed through a cell disrupter at 18 000 PSI and centrifuged at 50 000 g for 25 minutes at 4° C. The His-tagged BIO3-BIO1 protein was purified from the extract supernatant on an AKTA avant chromatography system (Cytiva) using a HisTrap FF column and eluted in IMAC buffer B ((20 mM HEPES pH7.5, 500 mM imidazole, 500 mM sodium chloride, 0.15 mM pyridoxal phosphate, 0.5 mM TCEP) followed by SEC using a HiLoad 26/60 Superdex200 column in SEC buffer (25 mM HEPES pH7.5, 150 mM sodium chloride, 0.15 mM pyridoxal phosphate, 0.5 mM TCEP). Protein concentration was measured and calculated using the absorbance at 280 nm. Extracts were diluted 1 in 4 and 10 uL was analysed by SDS PAGE.
(§6) To measure BIO3-BIO1 mutant enzyme activity in the presence of herbicide, herbicides were incubated with 20 μL of enzyme mix (100 mM EPPS pH 8.6, 0.1 mM pyridoxal phosphate, 0.1 mg/mL BSA, 50 nM BIO3-BIO1 enzyme) for 10 minutes at 20° C. in a well of a 96-well half-area black plate, followed by the addition of 20 μL of substrate mix (final concentration of 100 mM EPPS pH 8.6, 0.1 mM pyridoxal phosphate, 0.1 mg/mL BSA, 100 μM spermidine, 20 μM KAPA, 100 mM NaCO3) and further incubation for 75 minutes at 20° C. The reaction was terminated by the addition of 50 μL of derivatisation mix (final concentration of 250 mM borate NaOH pH 9.4, 3.6 mM o-phthalaldehyde, 7 mM β-mercaptoethanol, 17% (v/v) ethanol, 3.6% (v/v) methanol). The fluorescent product produced by the reaction of DAPA with o-phthalaldehyde and 7 mM β-mercaptoethanol was measured at 470 nm after excitation at 410 nm.
(§7) For IC50 calculations, appropriate dose responses of compounds L, M, B, K and G were used. Calculated percentage inhibitions were then input into GraphPad Prism 7 and IC50s calculated using the non-linear regression (vs. normalised response) equation.

Assay [4] deals with T2, Arabidopsis thaliana BioDA variant enzymes (Arabidopsis thaliana, UniProt B0F481, F348C).
T2 construct: with the predicted N-terminal mitochondrial transit peptide removed; 6xHis-tag (N); thrombin cleavage site (N); made in house; host or cells: E. coli BL21 (DE3) bioA
Briefly: biochemical. Here is the method: as §5, §6, §7

For assay [5], the target named is T3, Arabidopsis thaliana BioDA variant enzymes (Arabidopsis thaliana, UniProt B0F481, P421L).
T3 construct: with the predicted N-terminal mitochondrial transit peptide removed; 6xHis-tag (N); thrombin cleavage site (N); made in house; host or cells: E. coli BL21 (DE3) bioA
Kind of assay: biochemical. Here is the method: as §5, §6, §7

Assay [6] deals with T4, Arabidopsis thaliana BioDA variant enzymes (Arabidopsis thaliana, UniProt B0F481, W391L).
T4 construct: with the predicted N-terminal mitochondrial transit peptide removed; 6xHis-tag (N); thrombin cleavage site (N); made in house; host or cells: E. coli BL21 (DE3) bioA
Briefly: biochemical. Here is the method:
as §5, §6, §7

For assay [7], the target named is T5, Arabidopsis thaliana BioDA variant enzymes (Arabidopsis thaliana, UniProt B0F481, W392G).
T5 construct: with the predicted N-terminal mitochondrial transit peptide removed; 6xHis-tag (N); thrombin cleavage site (N); made in house; host or cells: E. coli BL21 (DE3) bioA
Kind of assay: biochemical. Here is the method: as §5, §6, §7

The subject of assay [8] is D4596 (Arabidopsis thaliana BIO3-BIO1 F348C) containing tobacco plants. Briefly: Visual herbicide damage score on transgenic tobacco D4596 (pCMP AtBioDA F348C). Type of assay: in vivo. The following applies: 600 gai/ha; 7 DAT; each table row is one D4596 transgenic plant.
Text: as §1, §2, §3, §4

T3 sequence (B0F481 24-833 P421L): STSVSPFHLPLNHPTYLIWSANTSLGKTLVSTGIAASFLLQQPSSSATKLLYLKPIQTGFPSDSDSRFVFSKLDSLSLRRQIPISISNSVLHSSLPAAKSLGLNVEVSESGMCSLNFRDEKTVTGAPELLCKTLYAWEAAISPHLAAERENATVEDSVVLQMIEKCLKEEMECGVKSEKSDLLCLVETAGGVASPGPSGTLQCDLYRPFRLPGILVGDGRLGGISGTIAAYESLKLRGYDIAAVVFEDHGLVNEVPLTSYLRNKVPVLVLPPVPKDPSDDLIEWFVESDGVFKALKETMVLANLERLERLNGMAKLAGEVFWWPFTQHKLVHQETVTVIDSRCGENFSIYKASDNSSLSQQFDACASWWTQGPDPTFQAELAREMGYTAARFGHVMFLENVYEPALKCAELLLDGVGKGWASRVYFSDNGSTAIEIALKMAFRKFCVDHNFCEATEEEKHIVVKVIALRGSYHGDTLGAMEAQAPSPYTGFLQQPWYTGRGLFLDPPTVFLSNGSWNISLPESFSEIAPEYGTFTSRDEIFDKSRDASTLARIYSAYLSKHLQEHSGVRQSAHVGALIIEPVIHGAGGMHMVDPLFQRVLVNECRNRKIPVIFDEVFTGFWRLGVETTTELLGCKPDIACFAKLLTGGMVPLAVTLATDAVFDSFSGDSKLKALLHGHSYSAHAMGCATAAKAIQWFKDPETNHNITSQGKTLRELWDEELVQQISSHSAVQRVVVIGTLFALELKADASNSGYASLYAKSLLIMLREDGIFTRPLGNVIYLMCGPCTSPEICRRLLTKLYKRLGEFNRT
T2 sequence (B0F481 24-833 F348C): as the sequence (B0F481 24-833 P421L) above, with F325C, L398P counted along it
T5 sequence (B0F481 24-833 W392G): as the sequence (B0F481 24-833 P421L) above, with W369G, L398P counted along it
T4 sequence (B0F481 24-833 W391L): as the sequence (B0F481 24-833 P421L) above, with W368L, L398P counted along it
T1 sequence (B0F481 24-833 C388T): as the sequence (B0F481 24-833 P421L) above, with C365T, L398P counted along it

Turning to `CCn1c(Cn2ccc(C(F)(F)F)n2)cc(=O)c(C(=O)O)c1-c1ccc(Cl)c(Cl)c1` [Compound L, 2-(3,4-dichlorophenyl)-1-ethyl-4-oxo-6-[[3-(trifluoromethyl)pyrazol-1-yl]methyl]pyridine-3-carboxylic acid], the percentage of damage in the assay on Wildtype Samsun tobacco (7 DAT) is 55% and 40% and 45% and 50%; in the assay with Wildtype Samsun tobacco (14 DAT), 80% (2×) and 85% and 75%; in the assay on Wildtype Samsun tobacco (21 DAT), 90% and 75% and 85%; in [1], 10%; in assay [2] (14 DAT) it was 70%; in assay [2] (21 DAT) it was 80%. In addition, the “growth of representative wild type tobacco plant after treatment (photograph, FIG. 6)” value in the assay on Wildtype Samsun tobacco (compound L 600 gai/ha, 28 days post treatment, compared to Event 8307 (pBin TMV EcBioA) and Event 8402 (pBin TMV MTP EcBioA)) was “significantly stunted growth”. Moreover, the IC50 in assay [3] is 0.092 µM; in assay [4], 77.6 µM; in assay [5] it was 0.687 µM; in assay [6], 16.3 µM; in assay [7], 17.7 µM.

As for `CCOC(=O)c1nn(-c2ccc3c(c2)OC(F)(F)C(F)(F)O3)c2cccc(C(C)=O)c2c1=O` [Compound A, ethyl 5-acetyl-4-oxo-1-(2,2,3,3-tetrafluoro-1,4-benzodioxin-6-yl)cinnoline-3-carboxylate], the percentage of damage in [8] is 0% and 3%.

The IC50 is the concentration needed to halve the response being measured. A low value points to greater potency.
